Source: PubChem BioAssay AID330 (DTP/NCI, 2004)
Several values for one entry are separate records, joined by “and”; a condition that tells them apart may be missing. Equal entries are not always repeated. Inconclusive results and toxic doses are left out. Rule for the calls: active = survival T/C of 150% or more; inactive = T/C below 125% in these data.

Test system: P388 leukemia ip, CD2F1 mice, survival T/C
Assay: NCI In Vivo Anticancer Drug Screen. Data for tumor model P388 Leukemia (intraperitoneal) in CD2F1 (CDF1) mice
Conditions: endpoint: median survival time, higher = longer survival
How it was run: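 Mice carrying the transplanted tumor received test compound or vehicle. Survival was recorded in each group, and the value is the treated-group measurement divided by that of the vehicle-treated control group.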

[1] = dose: 60.0 mg/kg/injection, schedule: Q01DX005 (ip), vehicle: saline with Tween-80
[2] = dose: 120.0 mg/kg/injection, schedule: Q01DX005 (ip), vehicle: saline with Tween-80
[3] = dose: 240.0 mg/kg/injection, schedule: Q01DX005 (ip), vehicle: saline with Tween-80
[4] = dose: 50.0 mg/kg/injection, schedule: Q01DX005 (ip), vehicle: Klucel (hydroxypropylcellulose) (HPC)
[5] = dose: 100.0 mg/kg/injection, schedule: Q01DX005 (ip), vehicle: Klucel (hydroxypropylcellulose) (HPC)
[6] = dose: 200.0 mg/kg/injection, schedule: Q01DX005 (ip), vehicle: Klucel (hydroxypropylcellulose) (HPC)
[7] = dose: 50.0 mg/kg/injection, schedule: Q01DX009 (ip), vehicle: saline with Tween-80
[8] = dose: 100.0 mg/kg/injection, schedule: Q01DX009 (ip), vehicle: saline with Tween-80
[9] = dose: 200.0 mg/kg/injection, schedule: Q01DX009 (ip), vehicle: saline with Tween-80
[10] = dose: 100.0 mg/kg/injection, schedule: Q01DX001 (ip), vehicle: saline with Tween-80
[11] = dose: 60.0 mg/kg/injection, schedule: Q01DX005 (ip), vehicle: saline
[12] = dose: 120.0 mg/kg/injection, schedule: Q01DX005 (ip), vehicle: saline
[13] = dose: 240.0 mg/kg/injection, schedule: Q01DX005 (ip), vehicle: saline
[14] = dose: 25.0 mg/kg/injection, schedule: Q01DX005 (ip), vehicle: Klucel (hydroxypropylcellulose) (HPC)
[15] = dose: 100.0 mg/kg/injection, schedule: Q01DX001 (ip), vehicle: Klucel (hydroxypropylcellulose) (HPC)
[16] = dose: 200.0 mg/kg/injection, schedule: Q01DX001 (ip), vehicle: Klucel (hydroxypropylcellulose) (HPC)
[17] = dose: 400.0 mg/kg/injection, schedule: Q01DX001 (ip), vehicle: Klucel (hydroxypropylcellulose) (HPC)

Measured: T/C

CCn1c2ccccc2n2c(=O)c(Cl)c(C)c(C#N)c12
inactive: [1] 100 % of control | [2] 98 % of control | [3] 97 % of control

COC(=O)C(CSSCC(C(=O)NC(Cc1ccccc1)C(=O)NCC(=O)OC(C)(C)C)N1C(=O)CCC1=O)NC(=O)OCc1ccccc1 (stereo not given)
inactive: [4] 103 % of control | [5] 93 % of control | [6] 96 % of control

CN(C)CC[CH2][Sn]([CH2]CCN(C)C)([CH2]CCN(C)C)[CH2]CCN(C)C
inactive: [7] 105 % of control | [8] 97 % of control

Clc1ccc(OCC(Cn2ccnc2)c2ccc(Cl)cc2)cc1 (stereo not given)
inactive: [7] 100 % of control | [8] 100 % of control

O=C1Oc2ccc3ccccc3c2CC1C(=O)c1ccc(Cl)cc1 (stereo not given)
inactive: [7] 88 % of control | [8] 88 % of control

CCN(CC)Cc1c(C)[nH]c2ccc(NC(C)=O)cc2c1=O
inactive: [7] 116 % of control | [8] 114 % of control

O=[n+]1c2c(n([O-])c3ccccc31)CCCCCC2
inactive: [7] 108 % of control | [8] 99 % of control | [9] 100 % of control

CCC(c1ccc(OC)cc1)C(NC(=S)Nc1ccc(C)cc1)c1ccc(OC)cc1 (stereo not given)
inactive: [10] 88 % of control | dose: 200.0 mg/kg/injection, schedule: Q01DX001 (ip), vehicle: saline with Tween-80 88 % of control | dose: 400.0 mg/kg/injection, schedule: Q01DX001 (ip), vehicle: saline with Tween-80 90 % of control

CN(C)c1ccc(C=Nc2ccc3c4c(cccc24)-c2ccccc2-3)cc1
inactive: [7] 93 % of control | [8] 86 % of control | [9] 89 % of control

CC(C)(C)C(CCC(=O)O)CC(=O)O (stereo not given)
inactive: [7] 100 % of control | [8] 95 % of control | dose: 100.0 mg/kg/injection, schedule: Q04DX003 (ip), vehicle: saline 95 % of control | [9] 100 % of control | dose: 200.0 mg/kg/injection, schedule: Q04DX003 (ip), vehicle: saline 91 % of control

Fc1ccc(NC(=S)SCc2ccccc2)cc1F
inactive: dose: 50.0 mg/kg/injection, schedule: Q01DX009 (ip), vehicle: saline 100 % of control | dose: 100.0 mg/kg/injection, schedule: Q01DX009 (ip), vehicle: saline 108 % of control | dose: 200.0 mg/kg/injection, schedule: Q01DX009 (ip), vehicle: saline 107 % of control

O=C(OCCO)c1ccccc1-c1c2cc3cc(Br)c(O)c(Br)c3oc-2c(Br)c(=O)c1Br
inactive: [11] 100 % of control | [12] 94 % of control | [13] 105 % of control

CN(C)NP(=S)(NN(C)C)Oc1ccccc1
inactive: dose: 50.0 mg/kg/injection, schedule: Q01DX005 (ip), vehicle: saline with Tween-80 117 % of control | dose: 100.0 mg/kg/injection, schedule: Q01DX005 (ip), vehicle: saline with Tween-80 99 % of control

COc1cc(/C=C/c2ccncc2)ccc1OC(C)=O
inactive: [14] 100 % of control | [4] 100 % of control | [5] 101 % of control | [6] 100 % of control

CCOC(=O)/N=C1/CCCC(=O)C1O (stereo not given)
inactive: [14] 102 % of control | [4] 103 % of control | [5] 93 % of control | [6] 101 % of control

CC(C)(C)c1ccc2c(c1)C1=NC2=NC2=NC(=NC3=NC(=NC4=NC(=N1)c1ccc(C(C)(C)C)cc14)c1ccc(C(C)(C)C)cc13)c1ccc(C(C)(C)C)cc12
inactive: [15] 98 % of control | [16] 95 % of control | [17] 91 % of control

O=C1NN(c2ccccc2)C(=O)/C1=C\c1ccccc1O
inactive: dose: 25.0 mg/kg/injection, schedule: Q01DX009 (ip), vehicle: saline with Tween-80 100 % of control and 96 % of control | dose: 43.75 mg/kg/injection, schedule: Q01DX005 (ip), vehicle: Klucel (hydroxypropylcellulose) (HPC) 104 % of control | dose: 43.75 mg/kg/injection, schedule: Q01DX009 (ip), vehicle: Klucel (hydroxypropylcellulose) (HPC) 95 % of control | [7] 94 % of control and 98 % of control | dose: 87.5 mg/kg/injection, schedule: Q01DX005 (ip), vehicle: Klucel (hydroxypropylcellulose) (HPC) 97 % of control | [8] 86 % of control and 97 % of control | dose: 175.0 mg/kg/injection, schedule: Q01DX005 (ip), vehicle: Klucel (hydroxypropylcellulose) (HPC) 98 % of control | dose: 175.0 mg/kg/injection, schedule: Q01DX009 (ip), vehicle: Klucel (hydroxypropylcellulose) (HPC) 102 % of control | [9] 86 % of control and 96 % of control | dose: 350.0 mg/kg/injection, schedule: Q01DX005 (ip), vehicle: Klucel (hydroxypropylcellulose) (HPC) 92 % of control | dose: 350.0 mg/kg/injection, schedule: Q01DX009 (ip), vehicle: Klucel (hydroxypropylcellulose) (HPC) 109 % of control | dose: 400.0 mg/kg/injection, schedule: Q01DX009 (ip), vehicle: saline with Tween-80 111 % of control

Cn1c(Br)c(/C=N/NC(N)=S)c2ccccc21
inactive: [15] 108 % of control | [16] 100 % of control | [17] 102 % of control

O=C1C2=C(Nc3cc([N+](=O)[O-])ccc3N2)OC1c1ccccc1Cl (stereo not given)
inactive: dose: 60.0 mg/kg/injection, schedule: Q01DX005 (ip), vehicle: Klucel (hydroxypropylcellulose) (HPC) 102 % of control | dose: 120.0 mg/kg/injection, schedule: Q01DX005 (ip), vehicle: Klucel (hydroxypropylcellulose) (HPC) 98 % of control | dose: 240.0 mg/kg/injection, schedule: Q01DX005 (ip), vehicle: Klucel (hydroxypropylcellulose) (HPC) 98 % of control

CC(=O)OCC1OC(n2cnc3c(N)ncnc32)C2OC(C)(C)OC12 (stereo not given)
inactive: [4] 101 % of control | [5] 97 % of control

O=C(N/N=C/c1cc(Br)cc(Br)c1[O-])c1ccccc1.O=C(N/N=C/c1cc(Br)cc(Br)c1[O-])c1ccccc1.[Co+2]
inactive: [10] 86 % of control

O=[N+]([O-])c1ccc(OCCSc2ccccc2)cc1
inactive: [7] 90 % of control | [8] 98 % of control | [9] 100 % of control

c1ccc(C2(c3ccccc3)CN3CCSC3=N2)cc1
inactive: dose: 12.5 mg/kg/injection, schedule: Q04DX003 (ip), vehicle: saline with Tween-80 104 % of control | dose: 25.0 mg/kg/injection, schedule: Q04DX003 (ip), vehicle: saline with Tween-80 103 % of control | dose: 50.0 mg/kg/injection, schedule: Q04DX003 (ip), vehicle: saline with Tween-80 99 % of control | dose: 100.0 mg/kg/injection, schedule: Q04DX003 (ip), vehicle: saline with Tween-80 108 % of control | dose: 200.0 mg/kg/injection, schedule: Q04DX003 (ip), vehicle: saline with Tween-80 103 % of control

Nc1nc(-c2cc(-c3ccco3)nc(N)n2)cc(-c2ccco2)n1
inactive: [11] 103 % of control | [12] 103 % of control | [13] 101 % of control

O=C1N2CCCSC2=NC1(c1ccccc1)c1ccccc1
inactive: [1] 97 % of control | [2] 98 % of control | [3] 89 % of control

CC[N+](C)(C)c1ccccc1
inactive: dose: 6.25 mg/kg/injection, schedule: Q04DX002 (ip), vehicle: saline 102 % of control | dose: 12.5 mg/kg/injection, schedule: Q04DX002 (ip), vehicle: saline 105 % of control | dose: 25.0 mg/kg/injection, schedule: Q04DX002 (ip), vehicle: saline 99 % of control and 102 % of control
